{"source": "patent US5071850A", "about": "“2,3-dihydro-3-arylalkylaminoalkyl-4H-1,3-benzoxazin-4-one derivatives, their preparation and their application as medicinal products which are useful in therapy” (Pierre Fabre Medicament, priority 1988, dated 1991)", "origin": "cited, not measured here", "settings": "Finkelstein and Chiang, J. Med. Chem. 11, 1038 (1968); cited from earlier work"}
{"smiles": "CCN(CC)CCN1COc2ccccc2C1=O", "note": "[3-(2-diethylaminoethyl)-2,3-dihydro-4H-1,3-benzoxazin-4-one]", "values": [{"measurement": "pharmacological result", "value": "inactive"}]}
